# Columns and labels:
# Cholinesterase [1] = target: T1, Cholinesterase (Homo sapiens, UniProt P06276)
# Description: Inhibition of BuChE (unknown origin)
# [2] = target: Voltage-gated calcium channel
# Description: Inhibition of VGCC (unknown origin)
# Acetylcholinesterase [3] = target: Acetylcholinesterase (Electrophorus electricus, UniProt O42275)
# Description: Inhibition of electric eel AChE
# Cholinesterase [4] = target: T1, Cholinesterase; assay: Inhibition of human BuChE
# Acetylcholinesterase [5] = target: T2, Acetylcholinesterase (Bos taurus, UniProt P23795); assay: Inhibition of bovine erythrocytes AChE using acetylthiocholine iodide as substrate by Ellman's methods
# T2 sequence (P23795 whole entry): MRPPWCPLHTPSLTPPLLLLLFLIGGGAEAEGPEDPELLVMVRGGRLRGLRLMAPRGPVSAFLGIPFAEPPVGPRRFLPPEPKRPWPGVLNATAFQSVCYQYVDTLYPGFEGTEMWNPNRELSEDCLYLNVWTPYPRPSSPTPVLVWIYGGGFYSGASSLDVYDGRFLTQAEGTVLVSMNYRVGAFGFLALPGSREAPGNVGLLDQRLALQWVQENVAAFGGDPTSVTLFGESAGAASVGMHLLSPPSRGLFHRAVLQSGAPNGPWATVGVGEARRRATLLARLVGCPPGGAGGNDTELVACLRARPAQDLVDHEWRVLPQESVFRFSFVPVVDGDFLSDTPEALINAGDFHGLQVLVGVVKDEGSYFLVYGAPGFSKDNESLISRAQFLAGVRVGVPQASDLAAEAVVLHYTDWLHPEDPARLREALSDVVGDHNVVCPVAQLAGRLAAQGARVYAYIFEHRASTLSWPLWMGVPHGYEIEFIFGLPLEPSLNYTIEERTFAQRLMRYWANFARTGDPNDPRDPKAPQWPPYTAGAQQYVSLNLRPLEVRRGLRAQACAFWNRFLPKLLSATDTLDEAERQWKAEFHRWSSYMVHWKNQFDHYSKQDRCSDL
# Cholinesterase [6] = target: T1, Cholinesterase; remark: listed apart in the source
# Description: Inhibition of human serum BuChE using butyrylthiocholine iodide as substrate by Ellman's methods
# Acetylcholinesterase [7] = target: Acetylcholinesterase (Homo sapiens, UniProt P22303); assay: Inhibition of human AChE
# Sequence of Acetylcholinesterase (Homo sapiens, UniProt P22303) (P22303 whole entry): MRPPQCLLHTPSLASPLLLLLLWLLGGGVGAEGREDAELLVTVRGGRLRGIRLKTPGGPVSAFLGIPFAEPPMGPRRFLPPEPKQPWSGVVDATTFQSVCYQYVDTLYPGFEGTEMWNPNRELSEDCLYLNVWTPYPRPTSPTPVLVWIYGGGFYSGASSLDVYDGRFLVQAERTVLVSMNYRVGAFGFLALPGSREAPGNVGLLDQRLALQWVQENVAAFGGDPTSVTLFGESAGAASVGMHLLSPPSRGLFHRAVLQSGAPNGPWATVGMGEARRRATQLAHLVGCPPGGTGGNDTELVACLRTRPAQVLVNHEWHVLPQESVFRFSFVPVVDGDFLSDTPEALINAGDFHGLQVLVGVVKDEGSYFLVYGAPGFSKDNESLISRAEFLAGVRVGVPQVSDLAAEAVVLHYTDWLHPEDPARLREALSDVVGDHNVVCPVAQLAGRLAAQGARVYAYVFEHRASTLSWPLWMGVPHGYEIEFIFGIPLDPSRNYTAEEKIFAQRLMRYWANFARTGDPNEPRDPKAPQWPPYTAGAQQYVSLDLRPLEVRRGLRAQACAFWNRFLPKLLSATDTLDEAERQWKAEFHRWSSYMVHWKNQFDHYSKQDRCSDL
# Sequence of Acetylcholinesterase (Electrophorus electricus, UniProt O42275) (O42275 whole entry): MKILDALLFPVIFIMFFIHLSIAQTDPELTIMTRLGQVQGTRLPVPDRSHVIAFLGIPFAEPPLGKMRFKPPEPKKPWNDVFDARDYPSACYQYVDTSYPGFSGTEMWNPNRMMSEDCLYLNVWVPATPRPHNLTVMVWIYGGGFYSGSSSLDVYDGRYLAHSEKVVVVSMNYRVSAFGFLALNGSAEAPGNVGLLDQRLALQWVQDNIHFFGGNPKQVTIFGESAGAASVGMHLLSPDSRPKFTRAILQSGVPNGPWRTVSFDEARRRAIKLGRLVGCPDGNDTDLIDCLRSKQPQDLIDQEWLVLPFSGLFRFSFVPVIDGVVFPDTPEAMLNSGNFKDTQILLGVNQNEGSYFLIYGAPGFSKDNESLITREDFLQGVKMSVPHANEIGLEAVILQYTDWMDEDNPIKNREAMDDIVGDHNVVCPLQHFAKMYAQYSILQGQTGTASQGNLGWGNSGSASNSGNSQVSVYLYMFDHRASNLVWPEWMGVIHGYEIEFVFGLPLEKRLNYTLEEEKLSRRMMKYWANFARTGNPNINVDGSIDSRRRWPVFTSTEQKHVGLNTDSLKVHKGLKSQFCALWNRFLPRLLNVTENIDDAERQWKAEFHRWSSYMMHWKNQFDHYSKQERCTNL
# T1 sequence (P06276 whole entry): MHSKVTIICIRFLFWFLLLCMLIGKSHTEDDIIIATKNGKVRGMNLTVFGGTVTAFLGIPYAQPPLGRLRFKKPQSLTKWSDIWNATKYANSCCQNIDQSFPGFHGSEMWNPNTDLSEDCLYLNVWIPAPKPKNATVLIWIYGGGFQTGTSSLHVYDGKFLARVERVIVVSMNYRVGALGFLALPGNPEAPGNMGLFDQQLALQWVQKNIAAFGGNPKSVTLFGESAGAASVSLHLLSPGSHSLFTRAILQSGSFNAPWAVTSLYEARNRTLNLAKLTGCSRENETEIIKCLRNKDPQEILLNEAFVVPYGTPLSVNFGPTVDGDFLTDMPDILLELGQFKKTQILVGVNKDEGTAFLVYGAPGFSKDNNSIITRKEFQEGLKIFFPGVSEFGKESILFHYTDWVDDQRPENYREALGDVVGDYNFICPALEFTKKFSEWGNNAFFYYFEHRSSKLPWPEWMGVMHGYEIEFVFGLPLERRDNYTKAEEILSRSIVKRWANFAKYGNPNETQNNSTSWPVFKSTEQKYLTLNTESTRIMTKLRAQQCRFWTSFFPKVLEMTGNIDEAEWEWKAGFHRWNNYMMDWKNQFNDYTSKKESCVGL
Compound,IC50 [2],IC50 (Acetylcholinesterase [3]),also measured
CCOC(=O)c1c(C)nc2nc3c(c(N)c2c1-c1ccc(F)cc1)CCCC3,38 µM,0.7 µM,IC50 (Cholinesterase [1]): 12 µM
Cc1nc2nc3c(c(N)c2c(-c2ccccc2)c1C(=O)OC(C)C)CCCC3,10 µM,1.2 µM,IC50 (Cholinesterase [1]): 12 µM
CCOC(=O)C1=C(C)Oc2nc3c(c(N)c2C1c1ccc(OC)cc1)CCCC3 (racemic),,,IC50 (Cholinesterase [4]): 6.2 µM; IC50 (Acetylcholinesterase [5]; read-out: IC50): 0.87 µM; IC50 (Cholinesterase [6]): 6.2 µM
CCOC(=O)c1c(C)nc2nc3c(c(N)c2c1-c1ccc(OC)cc1)CCC3,,,IC50 (Acetylcholinesterase [5]; read-out: IC50): 14 µM
CCOC(=O)c1c(C)nc2nc3c(c(N)c2c1-c1ccccc1)CCC3,,,IC50 (Acetylcholinesterase [5]): 11.9 µM
CCOC(=O)c1c(C)nc2nc3c(c(N)c2c1-c1cccc(OC)c1)CCCC3,15 µM,1.2 µM,IC50 (Cholinesterase [1]): 31 µM
CCOC(=O)c1c(C)nc2nc3c(c(N)c2c1-c1ccc(Cl)cc1)CCCCC3,27 µM,19 µM,
COc1cc(C2c3ccc(O)cc3Oc3nc4c(c(N)c32)CCCC4)cc(OC)c1OC (racemic),,,IC50 (Acetylcholinesterase [5]; read-out: IC50): 0.041 µM
CCOC(=O)c1c(C)nc2nc3c(c(N)c2c1-c1ccc(OC)cc1)CCCCC3,,,IC50 (Acetylcholinesterase [5]; read-out: IC50): 1.3 µM; IC50 (Cholinesterase [6]): 80.6 µM
CCOC(=O)c1c(C)nc2nc3c(c(N)c2c1-c1ccc(OC)c(OC)c1)CCCC3,26 µM,1.3 µM,
CCOC(=O)c1c(C)nc2nc3c(c(N)c2c1-c1ccc(OC)cc1)CCCC3,,,IC50 (Acetylcholinesterase [5]): 9 µM
CCOC(=O)c1c(C)nc2nc3c(c(N)c2c1-c1ccc(OC)cc1)CCCCCC3,20 µM,17 µM,
COc1ccc(C2c3c(nc4c(c3N)CCCC4)Oc3ccc4ccccc4c32)cc1OC (racemic),,,IC50 (Acetylcholinesterase [7]): 0.083 µM
CCOC(=O)c1c(C)nc2nc3c(c(N)c2c1-c1cccc([N+](=O)[O-])c1)CCCC3,18 µM,0.9 µM,IC50 (Cholinesterase [1]): 21 µM
CCOC(=O)c1c(C)nc2nc3c(c(N)c2c1-c1ccc(Cl)cc1)CCCC3,34 µM,1.3 µM,IC50 (Cholinesterase [1]): 52 µM
CCOC(=O)c1c(C)nc2nc3c(c(N)c2c1-c1ccc(F)cc1)CCCCC3,17 µM,5.4 µM,
CCOC(=O)c1c(C)nc2nc3c(c(N)c2c1-c1ccccc1)CCCC3,20 µM,,IC50 (Cholinesterase [1]): 5 µM; IC50 (Acetylcholinesterase [5]): 0.82 µM; IC50 (Cholinesterase [6]): 5 µM
CCOC(=O)c1c(C)nc2nc3c(c(N)c2c1-c1ccccc1)CCCCC3,,,IC50 (Acetylcholinesterase [5]): 21 µM
CCOC(=O)c1c(C)nc2nc3c(c(N)c2c1-c1ccc(OC)c(OC)c1)CCCCC3,9 µM,6.4 µM,
CCOC(=O)c1c(C)nc2nc3c(c(N)c2c1-c1ccc(C)cc1)CCCCC3,24 µM,13 µM,
CCOC(=O)c1c(C)nc2nc3c(c(N)c2c1-c1ccc([N+](=O)[O-])cc1)CCCCC3,13 µM,14 µM,
CCOC(=O)c1c(C)nc2nc3c(c(N)c2c1-c1cccc(OC)c1)CCCCC3,9 µM,,
CCOC(=O)c1c(C)nc2nc3c(c(N)c2c1-c1ccccc1OC)CCCCC3,17 µM,22 µM,
CCOC(=O)c1c(C)nc2nc3c(c(N)c2c1-c1ccccc1)CCCCCC3,10 µM,17 µM,

# — ChEMBL document CHEMBL4613210, “Tacrines for Alzheimer's disease therapy. III. The PyridoTacrines” (Eur J Med Chem, 2019)
